Activity calls are given as the source filed them. The rule behind the calls is not given here.
Key:
MC-38 [1] = assay: In vivo antitumor activity against mouse MC38 cells allografted in C57BL/6 mouse assessed as tumor growth inhibition at 50 mg/kg, po treated 5 days after cell inoculation 19 th day relative to control; type: functional; details: MC-38, 360 h, time 15 day, read-out: TGI
[2] = Oral bioavailability in C57BL/6 mouse allografted with mouse MC38 cells at 50 mg/kg; type: ADME, organism-based; details: in vivo
Mus musculus [3] = assay: (§1) Immunomodulatory effect in C57BL/6 mouse allografted mouse MC38 cells assessed as increase in tumor infiltrating lymphocytes by measuring increase in CD4+ T helper cells in mouse blood at 50 mg/kg, po treated 5 days after cell inoculation 19 th day by flow cytometry analysis (reference value: 0.27%); type: functional; details: time 15 day
Mus musculus [4] = assay: (§2) Immunomodulatory effect in C57BL/6 mouse allografted mouse MC38 cells assessed as increase in tumor infiltrating lymphocytes by measuring increase in […] in mouse blood at 50 mg/kg, po treated 5 days after cell inoculation 19 th day by flow cytometry analysis (reference value: 0.35%); type: functional; details: time 15 day
Mus musculus [5] = assay: as §1, with “lymph nodes” for “blood”, “15.5%)” for “0.27%)”; type: functional; details: time 15 day
Mus musculus [6] = assay: as §2, with “lymph nodes” for “blood”, “20.3%)” for “0.35%)”; type: functional; details: time 15 day
Mus musculus [7] = assay: as §1, with “spleen” for “blood”, “10.8%)” for “0.27%)”; type: functional; details: time 15 day
Mus musculus [8] = assay: as §2, with “spleen” for “blood”, “13.6%)” for “0.35%)”; type: functional; details: time 15 day
Mus musculus [9] = assay: Immunomodulatory effect in C57BL/6 mouse allografted mouse MC38 cells assessed as increase in tumor infiltrating lymphocytes by measuring increase in CD4+ T helper cells in tumor at 50 mg/kg, po treated 5 days after cell inoculation 19 th day by flow cytometry analysis (reference value: 2.57%); type: functional; details: time 15 day
Mus musculus [10] = assay: Immunomodulatory effect in C57BL/6 mouse allografted mouse MC38 cells assessed as increase in tumor infiltrating lymphocytes by measuring increase in CD8+ T […] cells in tumor at 50 mg/kg, po treated 5 days after cell inoculation 19 th day by flow cytometry analysis (reference value: 2.32%); type: functional; details: time 15 day
Mus musculus [11] = assay: Immunomodulatory effect in C57BL/6 mouse allografted with mouse MC38 cells assessed as increase in tumor infiltrating lymphocytes by measuring increase in CD3+ CD4+ cells at 50 mg/kg, po treated 5 days after cell inoculation 19 th day by flow cytometry analysis; type: functional, organism-based; details: time 15.0 day
MC-38 [12] = assay: In vivo antitumor activity against mouse MC38 cells allografted in C57BL/6 mouse assessed as decrease in […] positive cells in tumor at 50 mg/kg, po treated 5 days after cell inoculation 19 th day by immunofluorescence analysis; type: functional, organism-based; details: time 15.0 day
MC-38 [13] = assay: In vivo antitumor activity against mouse MC38 cells allografted in C57BL/6 mouse assessed as increase in Tunel-positive cells in tumor at 50 mg/kg, po treated 5 days after cell inoculation 19 th day by immunofluorescence analysis; type: functional, organism-based; details: time 15.0 day
Mus musculus [14] = assay: Induction of PD-L1 expression in tumor in C57BL/6 mouse allografted with mouse MC38 cells in presence of NP19 PD-L1 inhibitor at 50 mg/kg, po treated 5 days after cell inoculation 19 th day by immunofluorescence analysis; type: functional, organism-based; details: time 15.0 day

bioavailability [2]: < 5%
SMILES: Cc1c(COc2cc(OCc3cccc(C#N)c3)c(CNC(C)(C)C(=O)O)cc2Cl)cccc1-c1ccccc1
inhibition in vivo at 50 mg/kg (MC-38 [1]): 8%
Activity (Mus musculus [3]): 0.38%
Activity (Mus musculus [4]): 0.42%
Activity (Mus musculus [5]): 11.2%
Activity (Mus musculus [6]): 18.9%
Activity (Mus musculus [7]): 10.2%
Activity (Mus musculus [8]): 12.1%
Activity (Mus musculus [9]): 2.69%
Activity (Mus musculus [10]): 3.18%
Activity (Mus musculus [11]): inactive
Activity (MC-38 [12]): inactive
Activity (MC-38 [13]): Active
Activity (Mus musculus [14]): inactive
